Reference: US20070112077A1, “Des-C,D analogs of 1alpha,25-dihydroxy-19-norvitamin D3” (Wisconsin Alumni Research Foundation, priority 2005, published 2007)

How the values were obtained:
[1] = target: T1, full-length recombinant rat vitamin D receptor (Rattus norvegicus, UniProt P13053); assay: Vitamin D receptor binding, competition with [3H]-1,25-(OH)2-D3; details: competition with [3H]-1,25-(OH)2-D3, FIG. 1
T1 construct: Full-length recombinant rat receptor was expressed in E. coli; histidine tag (C); made in house; host or cells: E. coli BL21 (DE3) Codon Plus RIL
T1 sequence (P13053 1-423): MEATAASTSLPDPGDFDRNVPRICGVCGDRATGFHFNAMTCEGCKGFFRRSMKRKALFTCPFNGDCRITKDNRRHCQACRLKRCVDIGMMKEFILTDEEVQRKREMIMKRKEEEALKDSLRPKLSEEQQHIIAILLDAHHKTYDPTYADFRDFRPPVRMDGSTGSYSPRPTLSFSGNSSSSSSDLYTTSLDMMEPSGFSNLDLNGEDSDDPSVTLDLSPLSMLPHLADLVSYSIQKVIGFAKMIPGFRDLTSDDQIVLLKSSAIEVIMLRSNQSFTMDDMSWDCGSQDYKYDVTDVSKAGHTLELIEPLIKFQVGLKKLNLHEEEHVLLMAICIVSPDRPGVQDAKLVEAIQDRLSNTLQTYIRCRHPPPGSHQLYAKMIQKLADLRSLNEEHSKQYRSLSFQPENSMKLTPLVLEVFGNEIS
Excerpt: FIG. 1 is a graph comparing the relative activity of Des-C,D and 1,25(OH)2D3 to compete for binding with [^3H]-1 ,25-(OH)2-D3 to the full-length recombinant rat vitamin D receptor.
Full-length recombinant rat receptor was expressed in E. coli BL21 (DE3) Codon Plus RIL cells and purified to homogeneity using two different column chromatography systems. The first system was a nickel affinity resin that utilizes the C-terminal histidine tag on this protein. The protein that eluted from this resin was further purified using ion exchange chromatography (S-Sepharose Fast Flow). Aliquots of the purified protein were quick frozen in liquid nitrogen and stored at −80° C. until use. For use in binding assays, the protein was diluted in TEDK50 (50 mM Tris, 1.5 mM EDTA, pH 7.4, 5 mM DTT, 150 mM KCI) with 0.1% Chaps detergent. […]
Unlabeled ligands were dissolved in ethanol and the concentrations were determined using UV spectrophotometry (1,25(OH)2D3: molar extinction coefficient=18,200 and λmax=265 nm). […]
Radiolabeled and unlabeled ligands were added to 100 mcl of the diluted protein at a final ethanol concentration of ≦10%, mixed and incubated overnight on ice to reach binding equilibrium. […] Total binding was determined from the tubes containing only radiolabeled ligand.

Sprague-Dawley rats = assay: Bone calcium mobilization (serum calcium); assay type: in vivo, rat; details: even at the very high dose; four consecutive ip doses; FIG. 4
Excerpt: FIG. 4 is a bar graph comparing the bone calcium mobilization activity of Des-C,D with that of 1,25(OH)2D3.
Male, weanling Sprague-Dawley rats were placed on Diet 11 (Suda et al. J. Nutr. 100:1049, 1970) (0.47% Ca) diet +vitamins AEK for one week followed by Diet 11 (0.02% Ca) +AEK for 3 weeks. The rats were then switched to a diet containing 0.47% Ca for one week followed by two weeks on a diet containing 0.02% Ca. Dose administration began during the last week on 0.02% calcium diet. Four consecutive ip doses were given approximately 24 hours apart. Twenty-four hours after the last dose, blood was collected from the severed neck and the concentration of serum calcium was determined as a measure of bone calcium mobilization. The first 10 cm of the intestine was also collected for intestinal calcium transport analysis using the everted gut sac method. Antagonism was tested by administering a combination of 1,25(OH)2D3 and the compound to the animal simultaneously.

[2] = tested on: Human promyelocytic leukemia (HL60) cells; assay: HL-60 differentiation (nitro blue tetrazolium reduction); assay type: cell-based; details: FIG. 2
Description: FIG. 2 is a graph comparing the percent HL-60 cell differentiation as a function of the concentration of Des-C,D with that of 1,25(OH)2D3.
The study drugs were dissolved in ethanol and the concentrations determined using UV spectrophotometry. Serial dilutions were prepared so that a range of drug concentrations was tested without changing the final concentration of ethanol (≦0.2%) present in the cell cultures.
Human promyelocytic leukemia (HL60) cells were grown in RPMI-1640 medium containing 10% fetal bovine serum. The cells were incubated at 37° C. in the presence of 5% CO2.
HL60 cells were plated at 1.2 x 10^5cells/mL. Eighteen hours after plating, cells in duplicate were treated with drug. Four days later, the cells were harvested and a nitro blue tetrazolium reduction assay was performed (Collins et al., 1979; J. Exp. Med. 149:969-974). The percentage of differentiated cells was determined by counting a total of 200 cells and recording the number that contain intracellular black-blue formazan deposits. Verification of differentiation to monocytic cells was determined by measuring phagocytic activity.

[3] = tested on: 24-hydroxylase (24Ohase) gene promoter in ROS 17/2.8 (bone) cells; assay: In vitro transcription assay (24-hydroxylase gene promoter, luciferase reporter); assay type: cell-based; details: ROS 17/2.8 cells, FIG. 3
Description: FIG. 3 is a graph comparing the in vitro transcription activity of Des-C, D with that of 1,25(OH)2D3.
Transcription activity was measured in ROS 17/2.8 (bone) cells that were stably transfected with a 24-hydroxylase (240hase) gene promoter upstream of a luciferase reporter gene (Arbour et al., 1998). Cells were given a range of doses. Sixteen hours after dosing the cells were harvested and luciferase activities were measured using a luminometer. RLU=relative luciferase units.

Structure (SMILES): C=C1[C@H](O)CC(=C/C=C/CCC[C@@H](C)CCCC(C)(C)O)C[C@H]1O [Des-C,D]
- binding to the vitamin D receptor compared with 1,25-(OH)2D3 [1]: does not bind to the vitamin D receptor as strongly as the native hormone 1,25-(OH)2D3
- bone calcium mobilizing activity (Sprague-Dawley rats): no measureable bone calcium mobilizing activity
- activity in inducing differentiation of HL-60 cells compared with 1,25-(OH)2D3 [2]: does not show as much activity as 1,25-(OH)2D3
- activity in causing transcription compared with 1,25-(OH)2D3 [3]: does not show as much activity in causing transcription as 1,25-(OH)2D3
